Source: patent US6867186B2, “Cell-permeable protein inhibitors of calpain” (New England Medical Center Hospital, priority 1997, dated 2005)
Where two headings read alike, the source gives them in different places. Peptide text beside a SMILES is read from it. * marks the point of attachment. Cbz = O=C(OCc1ccccc1)*; CHN2 = [N-]=[N+]=C*

Key:
platelets [1] = assay: cells; format: cell-based; details: for IC50 / effect on platelet spreading: spreading on glass; for IC50: NI=no inhibition, read-out: IC50, inhibition of platelet spreading
Description: Platelet activation on surfaces can be inhibited by […] or […] fusion proteins. […] The cellular area of spread platelets was determined by computer assisted image analysis using NIH Image 1.61. […] Percent inhibition of spreading was calculated from the increase in mean cell area for untreated and treated samples vs. unspread DMSO controls.

gel filtered platelets = assay: Thrombin-induced platelet aggregation (aggregometer); format: cell-based, human; details: for IC50: initial rate during first 15 seconds, NI=no inhibition, peptidyl inhibitors 10 min pre-incubation, read-out: IC50, initial rate of thrombin-induced platelet aggregation; for effect on platelet aggregation: thrombin or SFLLR induced
Description: In one series of experiments, platelets were purified from […] on a SEPHAROSE 2B column in PIPES buffered saline containing glucose, pre-incubated with 45 μM calpastat or S-TIPPEY-ala for 30 minutes at 37° C., and placed in a cuvette in a BIODATA aggregometer. The aggregometer measures turbidity of the solution by nephlometry (light scatter). Aggregation was induced with thrombin (0.1 to 1 unit/ml) or the thrombin receptor agonist peptide SFLLR (SEQ ID NO:5). […] In contrast, S-TIPPEY-ala had no activity. A version of S-TIPPEYIN lacking the signal sequence similarly had no activity.
In another series of experiments, gel filtered platelets were obtained and tested as follows. Blood from healthy, aspirin-free volunteers was collected by venipuncture into 4% sodium citrate (9:1 v/v, final concentration 0.4%) and centrifuged at 200×g for 20 minutes to obtain platelet rich plasma (PRP). Following incubation with apyrase (4 units/ml for 5 minutes at room temperature), platelets were purified from PRP by gel-filtration at room temperature using a Sepharose 2B column equilibrated in PIPES buffer (25 mM PIPES pH 6.8, 140 mM NaCl, 4 mM KCl, and 0.1% glucose) (Hsu-Lin, et al., J. Biol. Chem. 259:9121-9126, 1984). Final gel filtered platelet concentrations were about 1.5×10^8 cells/ml.
Gel filtered platelets (250 μl aliquots at 1.6×10^8/ml) were incubated with the indicated concentration of calpastat or mutant calpastat-ala for either 20 or 30 minutes at 37° C. in the absence of calcium and stirring. To test peptidyl calpain inhibitors, platelets were preincubated with the indicated concentration of calpeptin, MDL, E64d, DMSO (vehicle control) or NH4Cl (cathepsin control) for 10 minutes at 37° C. Following incubation, platelets were recalcified (CaCl2, 2 mM) and stimulated with 0.05-1.0 unit/ml thrombin, while being stirred (1400 rpm) at 37° C. The sensitivity of platelet preparations to thrombin decreased over the course of a given experiment. The thrombin concentration used was to elicit robust aggregation and varied between 0.05 and 1.0 U/ml. Aggregation was measured using a Bio-Data lumi-aggregometer. Percent inhibition of aggregation was measured at 4 minutes following the onset of aggregation. The initial rate of aggregation during the first 15 seconds for treated vs. untreated samples was used to calculate the IC50 for each inhibitor.

platelets [2] = assay: cells
Description: To determine whether S-TIPPEYIN could inhibit α-granule secretion in platelets, surface expression of P-selectin, which indicates α-granule secretion, was induced with the thrombin peptide SFLLR (SEQ ID NO:5) and analyzed by flow cytometry using an antibody against P-selectin. Blood from healthy volunteers was collected into sodium citrate (4% w/v) and centrifuged at 200×g for 10 minutes to prepare platelet-rich plasma (PRP), from which platelets were subsequently purified by gel filtration using a SEPHAROSE 2B column in PIPES buffer. Twenty μl of platelets (approximately 2×10^8 platelets/ml) were aliquoted into eppendorf tubes and one μl of S-TIPPEYIN, TIPPEYIN (lacking the signal peptide sequence), or S-TIPPEY-ala was added to achieve final concentrations of 6.25, 12.5, 25, 50, or 100 μM. The platelets were then incubated for 2 hours at 37° C. and subsequently exposed to either 1 μl PBS (unstimulated) or 1 μl of SFLLR (SEQ ID NO:5; stimulated) at the indicated concentration. After 30 seconds, a 7.5 μl aliquot was transferred to an eppendorf tube containing non-immune serum having antibodies that were conjugated to phycoerythrin. Following a 20 minute incubation at room temperature, the mixture was diluted with 1 ml of 2% paraformaldehyde and incubated at 4° C. for two hours. Antibody binding to platelet surface P-selectin was quantified using a FACSCAN flow cytometer (Becton Dickerson, San Jose, Calif.). Results were reported as the geometric mean of the relative fluorescence.
Platelets were pre-incubated with increasing concentrations of calpeptin, MDL, E64d, or DMSO (vehicle control) for ten minutes prior to stimulation with SFLLR.

calpain = assay: Ionophore-dependent calpain degradation of ABP and talin in platelets; format: cell-based; details: 5, 8, or 10 minutes A23187
Description: To investigate whether calpastat inhibits calpain activity in platelets, the ionophore-dependent proteolysis of actin binding protein (ABP; about 280 kDa) and talin (about 240 kDa), both of which are substrates of both μ- and m-calpains, was examined as follows.
Platelets were pre-incubated with ZLLYCHN2, DMSO (solvent for ZLLY-CHN2), calpastat, or HEPES buffer (buffer for calpastat), and then treated with or without ionophore A23187 for 5, 8, or 10 minutes. The platelets were then gel-purified as described above. Whole cell lysates were prepared and fractionated by SDS polyacrylamide gel electrophoresis.

U1 cells = assay: U1 cell viability (Trypan-blue exclusion); format: cell-based, human; details: for U1 cell viability: 96 hr
Description: (§1) U1 is a human promonocytic cell line that is chronically infected with HIV-1 and that constitutively expresses low levels of HIV-1. […] In the present experiment, 1×10^6 cells/ml were treated with various dosages of calpastat and incubated for one hour at 37° C. After incubation, various concentrations of Tpg were added to the calpastat-treated cells and aliquoted into a 24-well plate. To observe the stimulation of HIV-1 activity by Tpg, equivalent numbers of cells were treated with Tpg alone. The cells were then incubated at 37° C. for up to four days, and supernatants from the cell culture were collected each day to measure HIV-1 activity. The viability of cells treated with both Tpg and calpastat were determined each day by Trypan-blue exclusion test. The HIV-1 activity in the collected supernatants was determined by measuring the HIV-1 p24 core antigen protein by ELISA (Dupont Medical Products, Boston, Mass.) according to the manufacturer's instructions.
In another series of experiments, U1 cells, which are latently infected with HIV-1 provirus, were plated at 10^6 cells/well in 1 ml of medium and treated with varying concentrations of either calpastat (FIG. 7E) or calpeptin (benzyloxycarbonyl-leucyl-norleucinal) (FIG. 7F) for 45 minutes before addition of thapsigargin (4 nM final concentration). The viability of U1 monocytes was 90% at 48 hours of thapsigargin (4 nM) treatment, in the presence or absence of calpain inhibitors. After 48 hours of stimulation, HIV-1 p24 antigen levels were determined in 200 μl of tissue culture supernatant, using a p24 ELISA (DuPont). All assays were performed on triplicate cultures. Mean values and standard deviations are shown for each concentration of inhibitor (FIGS. 7E-7F).

HIV-1 = details: 24 h
Description: as §1
In another series of experiments, U1 cells, which are latently infected with HIV-1 provirus, were plated at 10^6 cells/well in 1 ml of medium and treated with varying concentrations of either calpastat (FIG. 7E) or calpeptin (benzyloxycarbonyl-leucyl-norleucinal) (FIG. 7F) for 45 minutes before addition of thapsigargin (4 nM final concentration). […] After 48 hours of stimulation, HIV-1 p24 antigen levels were determined in 200 μl of tissue culture supernatant, using a p24 ELISA (DuPont). All assays were performed on triplicate cultures.

[3] = target: T1, purified µ-calpain (porcine erythrocyte) (porcine, UniProt P35750 1-714; P04574 1-266, limits assumed); assay: cell-based or functional assay
T1 sequence (looked up) 1: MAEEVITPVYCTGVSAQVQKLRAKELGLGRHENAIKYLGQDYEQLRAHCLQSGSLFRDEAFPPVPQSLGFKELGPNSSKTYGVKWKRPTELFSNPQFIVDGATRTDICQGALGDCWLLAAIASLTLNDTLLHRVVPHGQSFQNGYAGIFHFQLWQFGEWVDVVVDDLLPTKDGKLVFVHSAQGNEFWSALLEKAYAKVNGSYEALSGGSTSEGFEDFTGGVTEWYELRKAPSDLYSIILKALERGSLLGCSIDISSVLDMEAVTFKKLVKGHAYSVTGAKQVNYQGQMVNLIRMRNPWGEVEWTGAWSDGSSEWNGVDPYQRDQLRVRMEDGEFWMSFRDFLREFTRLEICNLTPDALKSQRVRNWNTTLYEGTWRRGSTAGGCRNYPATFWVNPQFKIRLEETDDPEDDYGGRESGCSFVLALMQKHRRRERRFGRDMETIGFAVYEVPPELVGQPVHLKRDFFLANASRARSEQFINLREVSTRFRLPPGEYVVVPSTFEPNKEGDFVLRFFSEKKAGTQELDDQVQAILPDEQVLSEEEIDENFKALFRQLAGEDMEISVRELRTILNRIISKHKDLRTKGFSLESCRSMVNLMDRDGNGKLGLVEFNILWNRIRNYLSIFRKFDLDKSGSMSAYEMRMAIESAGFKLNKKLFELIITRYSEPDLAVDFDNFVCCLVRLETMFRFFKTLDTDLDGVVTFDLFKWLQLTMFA
T1 sequence (looked up) 2: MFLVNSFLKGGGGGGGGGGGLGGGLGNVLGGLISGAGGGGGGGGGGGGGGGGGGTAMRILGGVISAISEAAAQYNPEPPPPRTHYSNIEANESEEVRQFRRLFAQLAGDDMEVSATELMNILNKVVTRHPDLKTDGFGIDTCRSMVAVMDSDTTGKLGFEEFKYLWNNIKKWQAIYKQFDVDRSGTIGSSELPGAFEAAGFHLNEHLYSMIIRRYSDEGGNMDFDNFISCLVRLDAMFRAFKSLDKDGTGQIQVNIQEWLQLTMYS

Molecule: CCCC[C@@H](C=O)NC(=O)[C@H](CC(C)C)NC(=O)OCc1ccccc1 [Calpeptin, benzyloxycarbonyl-leucyl-norleucinal]
- IC50 (platelets [1]; Platelet): 200 µM
- platelets round and unspread (platelets [1]; pre-treated at 200 μM): 30%
- IC50 (gel filtered platelets; Homo sapiens, Platelet): 150 µM
- IC50 (platelets [2]; Homo sapiens, Platelet, read-out: IC50 / half-maximal inhibition of P-selectin surface expression): 200 to 300 µM

Molecule: CCOC(=O)[C@H]1O[C@@H]1C(=O)N[C@@H](CC(C)C)C(=O)NCCC(C)C [E64d]
- platelets round and unspread (platelets [1]; pretreated at 250 μM): About 20%
- IC50 (platelets [1]): > 250 µM
- IC50 (gel filtered platelets): 340 µM

Molecule: CC(C)[C@H](NC(=O)OCc1ccccc1)C(=O)N[C@H](C=O)Cc1ccccc1 [MDL] (Cbz-Val-Phe-aldehyde)
- platelets round and unspread (platelets [1]; pre-treated at 200 μM): 30%
- IC50 (platelets [1]): 200 µM
- IC50 (gel filtered platelets): 240 µM

Molecule: Cl.N [NH4Cl]
- effect on platelet spreading (platelets [1]): no effect
- effect on platelet aggregation (gel filtered platelets): does not affect platelet aggregation

Molecule: CC(C)C[C@H](NC(=O)OCc1ccccc1)C(=O)N[C@@H](CC(C)C)C(=O)N[C@@H](Cc1ccc(O)cc1)C(=O)C=[N+]=[N-] [ZLLYCHN2, reference compound] (Cbz-Leu-Leu-Tyr-CHN2)
- effect on platelet spreading (platelets [1]): no inhibitory activity
- A23187-dependent calpain degradation of ABP and talin in platelets (calpain): inhibited

Molecule: C/C=C(/C)C(=O)O[C@H]1C(C)=C2[C@H]([C@@H]1OC(=O)CCCCCCC)[C@@](C)(OC(C)=O)C[C@H](OC(=O)CCC)[C@@]1(O)[C@H]2OC(=O)[C@@]1(C)O [thapsigargin]
- U1 cell viability (U1 cells; 4.0 nM Tpg): about 50%
- viability of U1 monocytes (U1 cells; 4 nM thapsigargin, 48 hours, presence or absence of calpain inhibitors): 90%
- U1 cell viability (U1 cells; 50 nM Tpg): ~5%
- induction of virus (HIV-1) (HIV-1; 1 nM Tpg): 1.37 fold
- induction of virus (HIV-1) (HIV-1; 5 nM Tpg): 20 fold

Molecule: EKLGERDDTIPPEYRELLEKKTGV [Calpastatin 24 mer]
- effect on platelet aggregation (gel filtered platelets): no measurable effect
- effect on platelet aggregation (gel filtered platelets; listed as S-TIPPEYIN lacking the signal sequence): no activity
- effect on SFLLR-induced P-selectin surface expression (platelets [2]; pre-incubation, SFLLR stimulation): little effect

Molecule: H-AAVALLPAVLLALLAPEKLGERDDTIPPEYRELLEKKTGV-OH [calpastat]
- inhibition of calpain cleavage of [14C]-methylcasein in a cell-free system (2.7 µM µ-calpain), IC50 [3]: 0.5 µM
- inhibition of µ-calpain cleavage of suc-LLVY-AMC (fluorometric calpain assay, 70 nM enzyme), IC50 [3]: 0.05 µM
